Data on three molecules can be found in PMC5253357, “Racemic Salsolinol and its Enantiomers Act as Agonists of the μ-Opioid Receptor by Activating the Gi Protein-Adenylate Cyclase Pathway” (Frontiers in Behavioral Neuroscience, 2017).

Assay [1] deals with T1, human μ-opioid receptor (Homo sapiens, UniProt P35372).
T1 construct: host or cells: CHO-K1
Description: cell-based. The following applies: CHO-K1 cells, forskolin 20 μM, 30 min incubation; read-out: EC50, activation of μ-opioid receptor (reduction of intracellular cAMP). From the text: The intrinsic activity of the ligands was studied using commercially cell-based assays, composed by recombinant CHO-K1 cells that overexpress only the human μ-opioid receptor, detecting the levels of second messengers that reflect the activation of this receptor. To assess the activation of the μ-opioid receptor through the recruitment of G protein signaling pathway, we used the cyclic adenosine monophosphate (cAMP) Hunter® eXpress G protein-coupled receptor (GPCR) Assay (DiscoverX, Freemont, CA, USA) following the manufacturer instructions. In this system, the endogenous cAMP competes with an exogenous cAMP coupled to a truncated β-galactosidase fragment (provided by the assay) for binding to a cAMP antibody. Only the unbound exogenous cAMP-β-galactosidase fragment binds to a complementary β-galactosidase fragment to form the active enzyme. […] Control cells were incubated only with forskolin. The resulting luminescence was measured with a microplate reader Synergy HT (Biotek, Winooski, VT, USA) or a microplate reader SpectraMax M3 (Molecular Devices, Sunnyvale, CA, USA).
(§1) The fitting of the data to the correlation was assessed by its corresponding coefficient of determination (R^2), using GraphPad Prism (San Diego, CA, USA).

Assay [2] deals with T1, human μ-opioid receptor. Format: cell-based. The following applies: all tested concentrations; listed as racemic SAL.
Text: To assess the activation of the μ-opioid receptor through the recruitment of the β-arrestin signaling pathway, we used a PathHunter® eXpress β-Arrestin GPCR chemiluminescent assay (DiscoverX) following the manufacturer instructions. In this system, the human μ-opioid receptor is fused to a small fragment of β-galactosidase (PK) and co-expressed in cells expressing a fusion protein of β-arrestin and the complementary fragment of β-galactosidase (EA). Activation of the μ-opioid receptor stimulates binding of β-arrestin to the PK-tagged receptor allowing the complementation of the two enzyme fragments of β-galactosidase. This action leads to an activation of the enzyme that can be measured using a chemiluminescent reagent resulting in luminescence, which is proportional to the recruitment of β-arrestin. […] The resulting luminescence was determined with a microplate reader Synergy HT (Biotek).
as §1

Assay [3] addresses μ-opioid receptor. Also on record: method as in Lucchi et al., 1982. Conditions: rat striatum; ref Lucchi et al., 1982; read-out: IC50, displacement of [met]-enkephalin; cited from earlier work.

Entries after “also recorded” stand apart in the source; their conditions may differ.

T1 sequence (P35372 whole entry): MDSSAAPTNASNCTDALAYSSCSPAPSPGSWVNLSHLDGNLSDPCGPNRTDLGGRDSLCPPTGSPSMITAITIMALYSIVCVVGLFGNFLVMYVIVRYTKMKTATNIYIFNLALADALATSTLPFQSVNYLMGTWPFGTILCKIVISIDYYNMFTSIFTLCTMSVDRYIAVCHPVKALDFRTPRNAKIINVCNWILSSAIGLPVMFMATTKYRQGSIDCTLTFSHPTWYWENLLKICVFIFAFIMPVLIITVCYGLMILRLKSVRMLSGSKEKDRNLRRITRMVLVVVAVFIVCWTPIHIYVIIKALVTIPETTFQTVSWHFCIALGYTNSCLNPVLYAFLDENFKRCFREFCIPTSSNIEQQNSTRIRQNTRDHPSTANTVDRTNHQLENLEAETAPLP

Turning to `C[C@@H]1NCCc2cc(O)c(O)cc21` [(S)-SAL], the EC50 in assay [1] was 9 µM.

Regarding `CC1NCCc2cc(O)c(O)cc21` (racemic) [(R/S)-SAL, 1-methyl-1,2,3,4-tetrahydro-6,7-dihydroxy-isoquinoline], the EC50 in assay [1] amounted to 20 µM. In assay [2], the “Activation of β-arrestin signaling pathway (in words)” value is reported as “did not promote the recruitment of β-arrestin; also recorded: unable to activate the β-arrestin signaling pathway; also recorded: does not induce the recruitment of β-arrestin”. Besides, in assay [3], the IC50 is 10 µM. With `C[C@H]1NCCc2cc(O)c(O)cc21` [(R)-SAL], the EC50 in assay [1] came out at 600 µM.
